The values that follow come from US8962631B2 (Vertex Pharmaceuticals Incorporated, priority 2010, dated 2015).

The structures appear in SMILES notation.

A word on the inhibition: it is the relative decrease from the control value, in per cent.

The target of one experiment is T1, full-length ATR (Homo sapiens, UniProt Q13535).
T1 construct: Assays were carried out at 25° C. in the presence of 5 nM full-length ATR
T1 sequence (Q13535 whole entry): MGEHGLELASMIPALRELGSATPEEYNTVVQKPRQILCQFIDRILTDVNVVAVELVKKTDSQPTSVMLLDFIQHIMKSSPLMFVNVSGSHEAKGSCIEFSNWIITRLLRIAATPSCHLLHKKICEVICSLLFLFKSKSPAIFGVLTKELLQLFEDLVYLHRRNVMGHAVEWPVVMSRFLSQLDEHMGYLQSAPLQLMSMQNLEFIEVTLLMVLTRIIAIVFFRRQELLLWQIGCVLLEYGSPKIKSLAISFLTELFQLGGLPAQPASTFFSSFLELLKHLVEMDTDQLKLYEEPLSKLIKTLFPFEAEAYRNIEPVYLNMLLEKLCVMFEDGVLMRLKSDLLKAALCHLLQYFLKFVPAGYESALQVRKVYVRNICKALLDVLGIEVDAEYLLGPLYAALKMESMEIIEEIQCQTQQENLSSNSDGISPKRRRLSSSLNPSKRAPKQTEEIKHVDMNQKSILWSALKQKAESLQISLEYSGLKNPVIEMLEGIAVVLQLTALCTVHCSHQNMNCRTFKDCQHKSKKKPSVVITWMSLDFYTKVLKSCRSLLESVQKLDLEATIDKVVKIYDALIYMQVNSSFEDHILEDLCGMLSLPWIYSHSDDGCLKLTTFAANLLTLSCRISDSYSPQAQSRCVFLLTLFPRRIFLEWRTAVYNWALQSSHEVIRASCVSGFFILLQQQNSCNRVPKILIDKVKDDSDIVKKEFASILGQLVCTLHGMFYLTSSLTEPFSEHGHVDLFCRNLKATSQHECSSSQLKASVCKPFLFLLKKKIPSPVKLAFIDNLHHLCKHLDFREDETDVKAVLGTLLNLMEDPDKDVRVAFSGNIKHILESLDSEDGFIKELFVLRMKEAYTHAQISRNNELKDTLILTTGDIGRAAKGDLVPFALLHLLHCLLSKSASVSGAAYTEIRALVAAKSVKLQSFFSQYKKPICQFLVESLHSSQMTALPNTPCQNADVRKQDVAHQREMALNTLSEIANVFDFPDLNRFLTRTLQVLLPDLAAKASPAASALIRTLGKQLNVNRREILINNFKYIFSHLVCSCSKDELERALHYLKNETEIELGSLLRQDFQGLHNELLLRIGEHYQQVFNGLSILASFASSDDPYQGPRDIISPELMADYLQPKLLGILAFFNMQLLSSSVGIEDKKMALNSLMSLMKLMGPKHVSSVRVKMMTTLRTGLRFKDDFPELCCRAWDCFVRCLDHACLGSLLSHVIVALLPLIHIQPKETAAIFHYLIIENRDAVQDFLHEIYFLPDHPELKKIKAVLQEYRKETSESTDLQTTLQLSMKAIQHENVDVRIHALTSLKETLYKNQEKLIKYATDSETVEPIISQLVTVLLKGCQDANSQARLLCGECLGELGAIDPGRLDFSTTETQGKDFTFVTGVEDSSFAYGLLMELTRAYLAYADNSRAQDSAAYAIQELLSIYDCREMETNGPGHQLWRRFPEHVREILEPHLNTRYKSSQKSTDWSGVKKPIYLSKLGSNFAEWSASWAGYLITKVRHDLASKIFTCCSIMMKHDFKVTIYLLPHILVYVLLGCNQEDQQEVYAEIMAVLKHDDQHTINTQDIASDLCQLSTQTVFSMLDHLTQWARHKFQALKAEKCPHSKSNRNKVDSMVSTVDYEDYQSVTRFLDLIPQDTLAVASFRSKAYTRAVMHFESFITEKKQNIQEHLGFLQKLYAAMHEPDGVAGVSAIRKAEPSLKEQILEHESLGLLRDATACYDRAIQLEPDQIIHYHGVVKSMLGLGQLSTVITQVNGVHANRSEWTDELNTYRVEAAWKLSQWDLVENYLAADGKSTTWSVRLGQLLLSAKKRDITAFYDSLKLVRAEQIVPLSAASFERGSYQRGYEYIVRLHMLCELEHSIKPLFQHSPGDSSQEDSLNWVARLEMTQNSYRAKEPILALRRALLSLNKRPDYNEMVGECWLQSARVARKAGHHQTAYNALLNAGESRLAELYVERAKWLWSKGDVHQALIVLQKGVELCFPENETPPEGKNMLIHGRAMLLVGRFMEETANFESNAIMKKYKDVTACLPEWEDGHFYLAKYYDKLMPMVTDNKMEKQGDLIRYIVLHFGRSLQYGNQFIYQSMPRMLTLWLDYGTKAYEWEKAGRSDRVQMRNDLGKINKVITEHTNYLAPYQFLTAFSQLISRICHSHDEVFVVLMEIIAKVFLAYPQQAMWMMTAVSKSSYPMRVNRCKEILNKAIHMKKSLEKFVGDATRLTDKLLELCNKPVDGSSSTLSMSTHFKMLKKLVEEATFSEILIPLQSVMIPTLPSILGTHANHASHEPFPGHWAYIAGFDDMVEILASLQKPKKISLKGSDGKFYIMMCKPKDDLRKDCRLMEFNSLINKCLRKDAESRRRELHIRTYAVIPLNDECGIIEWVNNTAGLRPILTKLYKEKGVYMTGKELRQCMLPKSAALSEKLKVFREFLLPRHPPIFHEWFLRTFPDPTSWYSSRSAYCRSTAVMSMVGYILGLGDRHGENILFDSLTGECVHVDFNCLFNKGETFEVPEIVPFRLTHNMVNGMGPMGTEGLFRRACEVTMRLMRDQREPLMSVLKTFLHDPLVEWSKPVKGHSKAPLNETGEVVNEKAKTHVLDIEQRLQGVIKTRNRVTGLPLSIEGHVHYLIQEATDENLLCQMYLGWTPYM
The experiment is described as follows: ATR Inhibition Assay (radioactive-phosphate incorporation). In kind it is biochemical. Particulars: Ki(app); 10 μM ATP, 800 μM target peptide, 5 nM full-length ATR, 25° C. Here is the method:
Compounds were screened for their ability to inhibit ATR kinase using a radioactive-phosphate incorporation assay. Assays were carried out in a mixture of 50 mM Tris/HCl (pH 7.5), 10 mM MgCl2 and 1 mM DTT. Final substrate concentrations were 10 μM [γ-33P]ATP (3 mCi 33P ATP/mmol ATP, Perkin Elmer) and 800 μM target peptide ([…] (SEQ. ID NO: 1)).
Assays were carried out at 25° C. in the presence of 5 nM full-length ATR. An assay stock buffer solution was prepared containing all of the reagents listed above, with the exception of ATP and the test compound of interest. 13.5 μL of the stock solution was placed in a 96 well plate followed by addition of 2 μL of DMSO stock containing serial dilutions of the test compound (typically starting from a final concentration of 15 μM with 3-fold serial dilutions) in duplicate (final DMSO concentration 7%). The plate was pre-incubated for 10 minutes at 25° C. and the reaction initiated by addition of 15 μL [γ-33P]ATP (final concentration 10 μM).
The reaction was stopped after 24 hours by the addition of 30 μL 0.1M phosphoric acid containing 2 mM ATP. A multiscreen phosphocellulose filter 96-well plate (Millipore, Cat no. MAPHN0B50) was pretreated with 100 μL 0.2M phosphoric acid prior to the addition of 45 μL of the stopped assay mixture. The plate was washed with […] 0.2M phosphoric acid. After drying, 100 μL Optiphase ‘SuperMix’ liquid scintillation cocktail (Perkin Elmer) was added to the well prior to scintillation counting (1450 Microbeta Liquid Scintillation Counter, Wallac).
After removing mean background values for all of the data points, Ki(app) data were calculated from non-linear regression analysis of the initial rate data using the Prism software package (GraphPad Prism version 3.0cx for Macintosh, GraphPad Software, San Diego Calif., USA).
For `Cc1ccc2nc(-c3nc(C(=O)N4CCC4)cnc3N)[nH]c2c1` [II-60, [5-Amino-6-(6-methyl-1H-benzimidazol-2-yl)pyrazin-2-yl]-(azetidin-1-yl)methanone], the Ki is not above 500 nM.

As to `Nc1ncc(Sc2ccccc2)nc1C(=O)Nc1ccccc1` [II-37, 3-Amino-N-phenyl-6-phenylsulfanyl-pyrazine-2-carboxamide], the Ki lay within 1000 to 8000 nM.

Take `Cc1ccc2nc(-c3nc(Oc4ccccc4)cnc3N)[nH]c2c1` [II-30, 3-(6-Methyl-1H-benzimidazol-2-yl)-5-phenoxy-pyrazin-2-amine]: the Ki was 1000 to 8000 nM.

For `Nc1ncc(C#CCCO)nc1-c1nnc(-c2ccccc2)o1` [II-89, 4-[5-amino-6-(5-phenyl-1,3,4-oxadiazol-2-yl)pyrazin-2-yl]but-3-yn-1-ol], the Ki was in the range of 1000 to 8000 nM.

Turning to `COc1ccc(CNC(=O)c2cnc(N)c(-c3nc4ccc(C)cc4[nH]3)n2)cc1` [II-65, 5-Amino-N-[(4-methoxyphenyl)methyl]-6-(6-methyl-1H-benzimidazol-2-yl)pyrazine-2-carboxamide], the Ki was not above 500 nM.

As for `Cc1ccc2nc(-c3nc(C#CCN4CCS(=O)(=O)CC4)cnc3N)[nH]c2c1` [II-85, 5-[3-(1,1-Dioxo-1,4-thiazinan-4-yl)prop-1-ynyl]-3-(6-methyl-1H-benzimidazol-2-yl)pyrazin-2-amine], the Ki was not above 500 nM.

As to `Nc1ncc(Oc2ccccc2)nc1C(=O)Nc1ccccc1` [II-17, 3-Amino-6-phenoxy-N-phenyl-pyrazine-2-carboxamide], the Ki was in the range of 500 to 1000 nM.

On to `Cc1ccc2nc(-c3nc(C(=O)NCc4cccnc4)cnc3N)[nH]c2c1` [II-70, 5-Amino-6-(6-methyl-1H-benzimidazol-2-yl)-N-(3-pyridylmethyl)pyrazine-2-carboxamide], for which the Ki was in the range of 500 to 1000 nM.

On to `Cc1ccc2nc(-c3nc(C#CCN(C)C)cnc3N)[nH]c2c1` [II-84, 5-[3-(Dimethylamino)prop-1-ynyl]-3-(6-methyl-1H-benzimidazol-2-yl)pyrazin-2-amine], for which the Ki lay within 1000 to 8000 nM.

Turning to `Cc1ccc2nc(-c3nc(C(=O)N(C)Cc4ccccc4)cnc3N)[nH]c2c1` [II-58, 5-Amino-N-benzyl-N-methyl-6-(6-methyl-1H-benzimidazol-2-yl)pyrazine-2-carboxamide], the Ki lay in the range of 500 to 1000 nM.

As to `C#CCNC(=O)c1cnc(N)c(-c2nc3ccc(C)cc3[nH]2)n1` [II-54, 5-Amino-6-(6-methyl-1H-benzimidazol-2-yl)-N-prop-2-ynyl-pyrazine-2-carboxamide], the Ki was not above 500 nM.

Regarding `CC(=O)NCCOc1cnc(N)c(-c2nc3ccc(C)cc3[nH]2)n1` [II-34, N-[2-[5-Amino-6-(6-methyl-1H-benzimidazol-2-yl)pyrazin-2-yl]oxyethyl]acetamide], the Ki fell in the range of 1000 to 8000 nM.

`COc1ccccc1NC(=O)c1nc(Oc2ccccc2)cnc1N` [II-16, 3-Amino-N-(2-methoxyphenyl)-6-phenoxy-pyrazine-2-carboxamide]: the Ki was not above 500 nM.

Consider `COC(=O)CNC(=O)c1cnc(N)c(-c2nc3ccc(C)cc3[nH]2)n1` [II-55, Methyl 2-[[5-amino-6-(6-methyl-1H-benzimidazol-2-yl)pyrazine-2-carbonyl]amino]acetate], for which the Ki is not above 500 nM.

Consider `Cc1ccc2nc(-c3nc(Oc4ccc(C(=O)O)cc4)cnc3N)[nH]c2c1` [II-26, 4-[5-Amino-6-(6-methyl-1H-benzimidazol-2-yl)pyrazin-2-yl]oxybenzoic acid], for which the Ki is not above 500 nM.

Consider `Nc1ncc(Nc2cccnc2)nc1C(=O)Nc1ccccc1` [II-5, 3-Amino-N-phenyl-6-(3-pyridylamino)pyrazine-2-carboxamide], for which the Ki was not above 500 nM.

With `Cc1ccc2nc(-c3nc(C(=O)NCC4CCCC4)cnc3N)[nH]c2c1` [II-49, 5-Amino-N-(cyclopentylmethyl)-6-(6-methyl-1H-benzimidazol-2-yl)pyrazine-2-carboxamide], the Ki was not above 500 nM.

Consider `Cc1ccc2nc(-c3nc(C(=O)NCCN4CCCC4)cnc3N)[nH]c2c1` [II-51, 5-Amino-6-(6-methyl-1H-benzimidazol-2-yl)-N-(2-pyrrolidin-1-ylethyl)pyrazine-2-carboxamide], for which the Ki was 500 to 1000 nM.

Regarding `CC(=O)Nc1cnc(N)c(-c2nc3ccccc3[nH]2)n1` [II-91, N-[5-Amino-6-(1H-benzimidazol-2-yl)pyrazin-2-yl]acetamide], the Ki is not above 500 nM.

On to `Cc1ccc2nc(-c3nc(C(=O)N4CCOCC4)cnc3N)[nH]c2c1` [II-53, [5-Amino-6-(6-methyl-1H-benzimidazol-2-yl)pyrazin-2-yl]-morpholino-methanone], for which the Ki lay within 1000 to 8000 nM.

Regarding `Nc1ncc(O[C@@H]2CC[C@H](O)C2)nc1-c1nc2ccccc2[nH]1` (relative stereo) [II-35, cis-3-((5-Amino-6-(1H-benzo[d]imidazol-2-yl)pyrazin-2-yl)oxy)cyclopentanol], the Ki was in the range of 1000 to 8000 nM.

As for `Cc1ccc2nc(-c3nc(C(=O)NCCc4ccccc4)cnc3N)[nH]c2c1` [II-69, 5-Amino-6-(6-methyl-1H-benzimidazol-2-yl)-N-phenethyl-pyrazine-2-carboxamide], the Ki is 500 to 1000 nM.

The experiment is the same for the next values; noted with them: at 15 uM compound; read-out: percent inhibition against ATR.
For the compound `Cc1ccc2nc(-c3nc(Oc4cccc(C#N)c4)cnc3N)[nH]c2c1` [II-31, 3-[5-Amino-6-(6-methyl-1H-benzimidazol-2-yl)pyrazin-2-yl]oxybenzonitrile], the inhibition at 15 µM was in the range of 15 to 24%.

With `Nc1ncc(Sc2ccccc2)nc1-c1nc2ccccc2[nH]1` [II-38, 3-(1H-Benzimidazol-2-yl)-5-phenylsulfanyl-pyrazin-2-amine], the inhibition at 15 µM lay in the range of 15 to 24%.

Take `Cc1cccc(Oc2cnc(N)c(-c3nc4ccccc4[nH]3)n2)c1` [II-11, 3-(1H-Benzimidazol-2-yl)-5-(3-methylphenoxy)pyrazin-2-amine]: the inhibition at 15 µM fell in the range of 15 to 24%.

As to `Cc1ccc2nc(-c3nc(C(=O)Nc4ccccc4)cnc3N)[nH]c2c1` [II-41, 5-Amino-6-(6-methyl-1H-benzimidazol-2-yl)-N-phenyl-pyrazine-2-carboxamide], the inhibition at 15 µM was in the range of 25 to 45%.
